Source: patent US6365135B1, “Use of amino phenol amide derivatives as depigmentation agents” (L'Oreal, priority 1997, dated 2002)

Test system: co-culture of keratinocytes and melanocytes
Experiment: Depigmenting activity test: inhibition of melanogenesis on a co-culture of keratinocytes and melanocytes
Assay type: cell-based
Conditions: for Class (maximum depigmenting activity): inhibition of melanogenesis relative to the control; for IC50: co-culture of keratinocytes and melanocytes, read-out: IC50 (concentration for which a 50% inhibition of melanogenesis is observed)
Protocol: This test corresponds to the one described in patent FR 2,734,825 filed by the Applicant, as well as in the article by R. Schmidt, P. Krien and M. Régnier, Anal. Biochem., 235 (2), 113-18, (1996). This test is thus carried out on a co-culture of keratinocytes and melanocytes.
For each test compound, the IC50 value, which corresponds to the micromolar concentration (μM) for which a 50% inhibition of melanogenesis is observed, is determined.
Moreover, a class is given to each of these compounds as regards their maximum depigmenting activity:
class 1: 10 to 30% inhibition of melanogenesis relative to the control (same experiment without test compound);
class 2: 30 to 60% inhibition of melanogenesis relative to the control (same experiment without test compound);
class 3: 60 to 100% inhibition of melanogenesis relative to the control (same experiment without test compound).

| Structure (SMILES) | Class (maximum depigmenting activity) (500 μM) | IC50 [µM] | Class (maximum depigmenting activity) (100 μM) |
| --- | --- | --- | --- |
| O=c1cc(CO)occ1O [Kojic acid] | 2 to 500 μM (class 2: 30 to 60% inhibition of melanogenesis relative to the control (same experiment without test compound)) | 500 | – |
| CCCCCCCCCCCC(=O)Oc1ccc(NC(C)=O)cc1 [Lauroyl [4-(N-acetylamino)] phenol, Lauroyl [4-(N-acetylamino)]phenol] | – | > 100 | 2 to 100 μM (class 2: 30 to 60% inhibition of melanogenesis relative to the control (same experiment without test compound)) |
